The values below come from article PMC6535779, “A Specific, Glycomimetic Langerin Ligand for Human Langerhans Cell Targeting” (ACS Central Science, 2019).

Each structure is given as a SMILES string.

Assay [1] has as its target T1, Langerin extracellular domain (ECD) (Homo sapiens, UniProt Q9UJ71).
T1 construct: the trimeric Langerin extracellular domain (ECD) was expressed insolubly in E; made in house
The experiment in a line: 19F R2-filtered NMR reporter displacement assay with Langerin. The assay is classed as binding. The following applies: calculated utilizing the KI value determined for 21. The method, then: (§1) Receptor Expression and Purification
General remarks. Codon-optimized genes for the expression of Langerin and DC-SIGN in E. coli were purchased from GenScript and Life Technologies, respectively. All growth media or chemicals used for receptor expression and purification were purchased from Carl Roth if not stated otherwise.
Langerin extracellular domain. Expression and purification were conducted as previously published14. Briefly, the trimeric Langerin extracellular domain (ECD) was expressed insolubly in E. coli BL21* (DE3) (Invitrogen). Following enzymatic cell lysis, inclusion bodies were harvested and subsequently solubilized. The sample was centrifuged and the Langerin ECD was refolded overnight via rapid dilution. Next, the sample was dialyzed overnight, centrifuged and purified via mannan-agarose affinity chromatography (Sigma Aldrich). For 19F R2-filtered NMR and lipid-enzyme-linked lectin assay (Lipid-ELLA) experiments, the buffer was exchanged to 25 mM Tris with 150 mM NaCl and 5 mM CaCl2 at pH 7.8 using 7 kDa size-exclusion desalting columns (Thermo Scientific). For […]
D2O, 150 mM NaCl and 5 mM CaCl2 at pH 7. The concentration of Langerin ECD was determined via UV spectroscopy (A280, 0.1% = 2.45). Purity and monodispersity of Langerin ECD samples were analyzed via SDS PAGE and DLS. […]
General remarks. 19F R2-filtered NMR experiments were conducted on a PremiumCompact 600 MHz spectrometer (Agilent). Spectra were processed in MestReNova and data analysis was performed with OriginPro 13, 15. Experiments with the Langerin ECD were performed at a receptor concentration of 50 μM in 25 mM Tris with 10% D2O, 150 mM NaCl and 5 mM CaCl2 at pH 7.8 and 25° C. […]
10% D2O, 150 mM NaCl and 5 mM CaCl2 at pH 7.0 and 25°C. TFA served as an internal reference at a concentration of 50 μM. Apparent relaxation rates R2,obs for the reporter ligand were determined using the CPMG pulse sequence as previously published3-5. […]
KI determination. KI values were determined as previously published for Langerin3. Briefly, titration experiments were conducted at a concentration of 0.1 mM of reporter ligand 24 at five competitor concentrations [I]T. Samples were prepared via serial dilution. For the acids GlcNS, GlcNAc-6-OS and GlcNS-6-OS the pH values were monitored and adjusted to 7.8 if necessary.
General remarks. 15N HSQC NMR experiments were conducted on an Ascend 700 MHz spectrometer (Bruker)16. Spectra were processed in NMRPipe17. Data analysis was performed using CCPN Analysis, MatLab and OriginPro15, 18-19. Experiments with the Langerin CRD were performed at a receptor concentration of 100 μM in 25 mM HEPES with 10% D 2O, 150 mM NaCl and 5 mM CaCl2 at pH 7.8 and 25° C. DSS-d6 served as an internal reference at a concentration of 100 μM. Spectra were referenced via the internal spectrometer reference. Spectra were acquired with 128 increments and 32 scans per increments for 150 μl samples in 3 mm sample tubes. The relaxation delay d1 was set to 1.4 s and the acquisition time tacq was set to 100 ms. The W5 Watergate pulse sequence was used for solvent suppression20. The used resonance assignment for the Langerin CRD has been published […]
KD determination. KD values were determined in titration experiments at six ligand concentrations [L]T. Samples were prepared via serial dilution. Chemical shift perturbations CSPs for Langerin CRD resonances in the fast or fast-to-intermediate exchange regime observed upon titration with ligand were calculated via Equation 121.

For a further assay, the target named is T2, DC-SIGN CRD (Homo sapiens, UniProt Q9NNX6).
T2 construct: with the DC-SIGN CRD were performed at a receptor concentration of 50 μM; made in house
T2 sequence (Q9NNX6 263-378 limits assumed): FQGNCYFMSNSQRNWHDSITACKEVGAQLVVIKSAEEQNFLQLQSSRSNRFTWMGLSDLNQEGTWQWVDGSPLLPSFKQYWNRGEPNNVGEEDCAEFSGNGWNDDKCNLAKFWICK
As to the kind of experiment: 19F R2-filtered NMR reporter displacement assay with DC-SIGN. The assay is classed as binding.
Text: Figure S7. 19F R2-filtered NMR assay development with DC-SIGN. […]
substantial line broadeni ng. This phenomenon was utilized to develop the 19F R2-filtered NMR reporter displacement assay following the procedure previously published for Langerin 3. The spectrum in absence of DC -SIGN is processed with an exponential apodization function at 1.8 Hz. b. The interaction between 24 and DC-SIGN was quantified via the transversal relaxation rate R2,obs using the CPMG pulse sequence4-5. Representative decay curves in the presence of DC-SIGN are shown. c. The Ca2+-dependency of the interaction was validated via addition of EDTA. The R2,obs value in absence of DC-SIGN was determined from four independent experiments. The standard error for the experiments in presence of DC-SIGN and EDTA is derived directly from the fitting procedure. d. Relaxation dispersion experiments for 24 in presence of DC-SIGN indicate at negligible exchange contribution R2,ex at a νCPMG value of 500 Hz. In contrast to Langerin, a considerable exchange contribution is observed a lower νCPMG values. e. A representative binding isotherm for the affinity determination for 24 is shown. The KD value was determined from three independent titrations. The obtained K D and additional parameters from the fitting procedure are given in Tab le S3.
(1 picture or pasted object on this page, not shown here)
as §1
General remarks. Codon-optimized genes for the expression of Langerin and DC-SIGN in E. coli were purchased from GenScript and Life Technologies, respectively. All growth media or chemicals used for receptor expression and purification were purchased from Carl Roth if not stated otherwise. […]
Langerin and DC-SIGN carbohydrate recognition domain. Expression and purification were conducted as previously published14. Briefly, the monomeric 15N-labeled Langerin and DC-SIGN carbohydrate recognition domains (CRDs) were expressed insolubly in E. coli BL21* (DE3) (Invitrogen). Following enzymatic cell lysis, inclusion bodies were harvested and subsequently solubilized. The sample was centrifuged and the Langerin and DC-SIGN CRDs were refolded overnight via rapid dilution. Next, the sample was dialyzed overnight, centrifuged and purified via StrepTactin affinity chromatography (Iba). After an additional dialysis step overnight, the sample was centrifuged and the buffer was exchanged to 25 mM HEPES with 150 mM NaCl at pH 7.0 using 7 kDa size-exclusion desalting columns (Thermo Scientific) for 19F R2-filtered and 15N HSQC NMR experiments. The concentration of Langerin and DC -SIGN CRDs was determined via UV spectroscopy (A280, 0.1% = 3.19 and A280, 0.1% = 2.98). Purity and monodispersity of Langerin and DC - SIGN CRD samples were analyzed via SDS PAGE and DLS.
General remarks. 19F R2-filtered NMR experiments were conducted on a PremiumCompact 600 MHz spectrometer (Agilent). Spectra were processed in MestReNova and data analysis was performed with OriginPro 13, 15. Experiments with the Langerin ECD were performed at a receptor concentration of 50 μM in 25 mM Tris with 10% D2O, 150 mM NaCl and 5 mM CaCl2 at pH 7.8 and 25° C. Experiments […]
with the DC-SIGN CRD were performed at a receptor concentration of 50 μM in 25 mM HEPES with 10% D2O, 150 mM NaCl and 5 mM CaCl2 at pH 7.0 and 25°C. TFA served as an internal reference at a concentration of 50 μM. Apparent relaxation rates R2,obs for the reporter ligand were determined using the CPMG pulse sequence as previously published3-5.
Assay development for DC-SIGN. The 19F R2-filtered NMR reporter displacement assay for DC-SIGN was developed following the procedure previously published for Langerin3. Briefly, the KD value and the relaxation rate in bound state R2,b were determined at five concentrations [L]T of reporter ligand 24 in three independent titration experiments. Samples were prepared via serial dilution. The addition of 10 mM EDTA served to validate the Ca2+-dependency of the interaction between DC-SIGN and the reporter ligand. […]

Assay [2] has as its target T1, Langerin extracellular domain (ECD). Also on record: method as in PMID 27458873. The following applies: 19F R2-filtered NMR; previously published value; cited from earlier work.
The target in another assay is T3, Langerin CRD (Homo sapiens, UniProt Q9UJ71).
T3 construct: Experiments with the Langerin CRD were performed at; made in house
T3 sequence (Q9UJ71 202-320 limits assumed): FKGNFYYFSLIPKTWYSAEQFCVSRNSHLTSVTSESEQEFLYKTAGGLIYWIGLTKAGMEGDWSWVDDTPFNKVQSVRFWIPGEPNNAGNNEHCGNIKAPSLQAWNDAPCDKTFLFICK
Also on record: method as in PMID 27458873. The following applies: previously published value; cited from earlier work.

T1 sequence (Q9UJ71 65-328 limits assumed): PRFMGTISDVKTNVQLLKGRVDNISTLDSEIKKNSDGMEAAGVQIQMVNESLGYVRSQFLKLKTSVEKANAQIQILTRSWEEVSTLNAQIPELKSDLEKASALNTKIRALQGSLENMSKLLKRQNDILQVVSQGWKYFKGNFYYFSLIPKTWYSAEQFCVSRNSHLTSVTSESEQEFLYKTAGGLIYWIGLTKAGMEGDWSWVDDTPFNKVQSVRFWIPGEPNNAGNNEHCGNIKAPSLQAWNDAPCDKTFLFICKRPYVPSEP

Turning to `OC[C@H]1OC(O)[C@@H](O)[C@@H](O)[C@@H]1O` (some centres unmarked) [Man, mannose], the “Relative potency, Langerin” value in assay [1] is given as 2.2. The Ki is 3 ± 0.3 mM at DC-SIGN CRD (19F R2-filtered NMR, DC-SIGN CRD, pH 7.0, 25 °C) and 4.5 ± 0.5 mM in assay [2]. The specificity on DC-SIGN CRD (Table 1, Langerin against DC-SIGN, from KI values) is given as 0.67. Also, on Langerin CRD, the equilibrium dissociation constant (Kd) was 6.5 ± 0.2 mM.

The Ki is a measure of affinity in units of concentration, obtained from inhibition or displacement. Broadly, the Kd is the equilibrium constant for the complex coming apart.
